{"source": "patent US8314269B2", "about": "“N-(1-methyl-2phenylethyl)benzamide derivatives” (Bayer Cropscience AG, priority 2005, dated 2012)", "tested_on": "Pyrenophora teres", "assay": "In vivo test on Pyrenophora teres (barley net blotch)", "settings": "500 ppm, preventive spray on barley plants (Express), grading 12 days after contamination vs control plants", "procedure": "The active ingredients tested are prepared by homogenisation in a mixture of acetone/tween/DMSO, then diluted with water to obtain the desired active material concentration.\nBarley plants (Express variety), sown on a 50/50 peat soil-pozzolana substrate in starter cups and grown at 12° C., are treated at the 1-leaf stage (10 cm tall) by spraying with the active ingredient prepared as described above. Plants, used as controls, are treated with the mixture of acetone/tween/DMSO/water not containing the active material.\nAfter 24 hours, the plants are contaminated by spraying them with an aqueous suspension of Pyrenophora teres spores (12,000 spores per ml). The spores are collected from a 12-day-old culture. The contaminated barley plants are incubated for 24 hours at about 20° C. and at 100% relative humidity, and then for 12 days at 80% relative humidity.\nGrading is carried out 12 days after the contamination, in comparison with the control plants."}
{"smiles": "CC(Cc1ccc(Cl)cc1)NC(=O)c1ccccc1C(F)(F)F", "note": "(stereo not shown) [Compound 1]", "values": [{"measurement": "protection", "value": "at least 70%"}]}
